From US20240358665A1, “SMALL MOLECULE MELPHALAN HYDROGEL AND METHOD FOR PREPARING THE SAME” (Changzhi Medical College, priority 2024, published 2024)

Assay: Change of transmittance over time at 790 nm (ultraviolet spectrophotometer)
Type: physicochemical
Conditions: melphalan dissolved in physiological saline (FIG. 5: 0.9% NaCl, content 2%)
Experimental: The small molecule melphalan hydrogels prepared in Embodiments 1 to 3 of the present disclosure are tested for transmittance, and the specific testing steps are as follows: • Prepare small molecule melphalan solutions according to the methods in Embodiments 1 to 3 above, take 3 mL of the solution and place it in a glass dish, and place the glass dish in an ultraviolet spectrophotometer, and measure the change of transmittance over time, at 790 nm. The phenomenon that the transmittance gradually decreases from 100% (solution state) to less than 10% proves that the small molecule melphalan solution is transformed into a hydrogel.

SMILES: N[C@@H](Cc1ccc(N(CCCl)CCCl)cc1)C(=O)O [melphalan, Melphalan]
- transmittance after gelation (falls from 100% in solution state): less than 10%
